Article PMC10496123, “Potent Antifungal Activity of Penta-O-galloyl-β-D-Glucose against Drug-Resistant Candida albicans, Candida auris, and Other Non-albicans Candida Species” (ACS Infectious Diseases, 2023)
Converted amounts (≈) assume the structure as drawn.

What was measured:
[1] = system: C. albicans wild type (SN95, SN152) and ire1Δ/Δ, hap43Δ/Δ, rim101Δ/Δ; assay: microbe, parasite or virus in culture; assay type: cell-based, Candida albicans; conditions: mutants versus wild type
Candida auris = assay: Growth inhibition by CLSI microbroth dilution; assay type: cell-based; conditions: Candidozyma auris, 48 h
Candida albicans [2] = assay: Growth inhibition by CLSI microbroth dilution; assay type: cell-based; conditions: Candida albicans, >90% growth inhibition, 48 h
Candida parapsilosis = assay: Growth inhibition by CLSI microbroth dilution; assay type: cell-based; conditions: 48 h, >90% growth inhibition
Candida glabrata = assay: Growth inhibition by CLSI microbroth dilution; assay type: cell-based; conditions: Nakaseomyces glabratus, 48 h, >90% growth inhibition
[3] = system: C. albicans wild type (CAF2-1) and cdr1Δ/Δ cdr2Δ/Δ mdr1Δ/Δ flu1Δ/Δ; assay: microbe, parasite or virus in culture; assay type: cell-based, Candida albicans; conditions: for MIC90: Candida albicans, 72 h, RPMI-1640, 72 h, 30 °C, OD600
Candida albicans [4] = system: Candida albicans; set-up: method as in PMID 15790671; conditions: addition of both Fe^2+ and Fe^3+; cited from earlier work
C. albicans = system: C. albicans; set-up: method as in PMID 12760852; conditions: 6 months of treatment in vitro; cited from earlier work
[5] = strain AR Bank #0381, >90% growth inhibition
[6] = strain AR Bank #0387, >90% growth inhibition
[7] = strain AR Bank #0390, >90% growth inhibition

Compound | Effect of deletion of IRE1, HAP43 and RIM101 on sensitivity [1] | MIC (Candida auris; [5]) [µg/mL] | MIC (Candida auris; [6]) [µg/mL] | MIC (Candida auris; [7]) [µg/mL] | MIC (Candida albicans [2]; ATCC90028, strain ATCC 90028) [µg/mL] | MIC (Candida albicans [2]; strain MH12) [µg/mL] | MIC (Candida parapsilosis; strain AR Bank #0335) [µg/mL] | MIC (Candida parapsilosis; strain AR Bank #0337) [µg/mL] | MIC (Candida parapsilosis; strain AR Bank #0338) [µg/mL] | MIC (Candida parapsilosis; strain AR Bank #0339) [µg/mL] | MIC (Candida glabrata; strain AR Bank #0325) [µg/mL] | MIC (Candida glabrata; strain AR Bank #0326) [µg/mL] | MIC90 ([3]; Wild type (CAF2-1)) [µg/mL] | MIC90 ([3]; cdr1Δ/Δ cdr2Δ/Δ mdr1Δ/Δ flu1Δ/Δ) [µg/mL] | Effect of absence of major efflux pumps (CDR1, CDR2, FLU1, MDR1) on sensitivity ([3]; mutant versus wild type) | Antifungal activity on addition of iron (Candida albicans [4]) | Development of resistance (C. albicans)
bathophenanthrolinedisulfonate [BPS, reference compound] | hypersensitive | – | – | – | – | – | – | – | – | – | – | – | – | – | – | – | –
C[C@@H]1[C@H](O)[C@@H](C)/C=C/C=C/C=C/C=C/C=C/C=C/C=C/[C@H](O[C@@H]2O[C@H](C)[C@@H](O)[C@H](N)[C@@H]2O)C[C@@H]2O[C@](O)(C[C@@H](O)C[C@@H](O)[C@H](O)CC[C@@H](O)C[C@@H](O)CC(=O)O[C@H]1C)C[C@H](O)[C@H]2C(=O)O [AMB, amphotericin B] | – | 1 (≈ 1.08 µM) | 0.5 (≈ 0.541 µM) | 2 (≈ 2.16 µM) | 1 (≈ 1.08 µM) | 1 (≈ 1.08 µM) | 1 (≈ 1.08 µM) | 1 (≈ 1.08 µM) | 1 (≈ 1.08 µM) | 2 (≈ 2.16 µM) | 1 (≈ 1.08 µM) | 1 (≈ 1.08 µM) | – | – | – | – | –
OC(Cn1cncn1)(Cn1cncn1)c1ccc(F)cc1F [FLC, fluconazole] | – | 4 (≈ 13.1 µM) | 1 (≈ 3.27 µM) | > 8 | 0.25 (≈ 0.816 µM) | > 8 | > 8 | > 8 | > 8 | > 8 | > 8 | 4 (≈ 13.1 µM) | > 5 | 0.16 (≈ 0.522 µM) | hypersensitivity | – | –
Cc1cc(C2CCCCC2)n(O)c(=O)c1 [ciclopirox] | – | – | – | – | – | – | – | – | – | – | – | – | – | – | – | abrogated | did not develop
CC(=O)N1CCN(c2ccc(OCC3COC(Cn4ccnc4)(c4ccc(Cl)cc4Cl)O3)cc2)CC1 (stereo not drawn) [KTC, ketoconazole] | – | < 0.0039 | < 0.0039 | 0.5 (≈ 0.941 µM) | < 0.0039 | 1 (≈ 1.88 µM) | 4 (≈ 7.53 µM) | 2 (≈ 3.76 µM) | 0.5 (≈ 0.941 µM) | 0.25 (≈ 0.47 µM) | 4 (≈ 7.53 µM) | 0.25 (≈ 0.47 µM) | – | – | – | – | –
